Measurements as given in ChEMBL document CHEMBL3352519, “Discovery of a novel pyrazole series of group X secreted phospholipase A2 inhibitor (sPLA2X) via fragment based virtual screening” (Bioorg Med Chem Lett, 2014).

Key:
[1] = molecular target: T1, Group 10 secretory phospholipase A2 (Homo sapiens, UniProt O15496); assay: Inhibition of human sPLA2X using 1,2-bis(heptanoylthio) glycerophosphocholine substrate incubated for 30 mins
T1 sequence (O15496 whole entry): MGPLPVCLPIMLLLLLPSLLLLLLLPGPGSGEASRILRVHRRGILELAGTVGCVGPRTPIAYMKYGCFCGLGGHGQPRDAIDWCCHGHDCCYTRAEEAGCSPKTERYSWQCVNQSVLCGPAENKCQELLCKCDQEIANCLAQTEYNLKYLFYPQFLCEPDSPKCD

[2] = molecular target: T1, Group 10 secretory phospholipase A2; assay: Binding affinity to sPLA2X (unknown origin)
[3] = molecular target: T2, Group 10 secretory phospholipase A2 (Homo sapiens) (UniProt O15496); assay: (§1) Binding affinity to sPLA2X (unknown origin) by NMR spectroscopy based displacement assay; settings: concentration not given here
T2 sequence (whole entry): T1 sequence (O15496 whole entry)

[4] = molecular target: T1, Group 10 secretory phospholipase A2; assay: as §1

| IC50 [1] [nM] | Compound | also measured |
| --- | --- | --- |
| 398 | NC(=O)c1cc(-c2cc(Cl)sc2Cl)[nH]n1 |  |
| 2750 | Cc1ccccc1-c1cc(C(N)=O)n[nH]1 |  |
|  | COc1ccc2c(C(O)C(N)=O)c(C)n(Cc3ccccc3)c2c1 (stereo not given) | IC50 [2]: 250 µM |
| 347 | Cc1sc(-c2ccccc2)cc1-c1cc(C(N)=O)n[nH]1 |  |
| 851 | Cc1sc2ccccc2c1-c1cc(C(N)=O)nn1C |  |
| 631 | Cc1sccc1-c1cc(C(N)=O)n[nH]1 |  |
| 9330 | NC(=O)c1cc(-c2ccccc2Cl)[nH]n1 |  |
| 316 | Cc1cc(-c2cc(C(N)=O)n[nH]2)c(C)s1 | inhibition [3]: 57%; IC50 [4]: 20 µM |
|  | Oc1nc(-c2ccccc2)c(-c2ccccc2)[nH]1 | inhibition [3]: 88%; IC50 [4]: 45 µM |
| 1200 | Cc1sc(-c2ccccc2)cc1-c1cc(C(N)=O)nn1C |  |
| 851 | Cc1cc(-c2cc(C(N)=O)nn2C)c(C)s1 |  |
|  | O=C(O)c1ccc(-n2ncc3ccccc3c2=O)cc1 | inhibition [3]: 76%; IC50 [4]: 50 µM |
| 174 | Cc1sc2ccccc2c1-c1cc(C(N)=O)n[nH]1 |  |
| < 51.3 | Cc1sc(C(C)C)cc1-c1cc(C(N)=O)n[nH]1 |  |
|  | O=C(O)c1csc(-c2ccc3c(c2)CCO3)n1 | inhibition [3]: 80%; IC50 [4]: 70 µM |
